Test results reported in patent publication US8598365B2, “Herbicides” (Syngenta Limited, priority 2007, dated 2013).

Columns and labels:
Type in all cases: in vivo
[1] = system: Alopecurus myosuroides (ALOMY); assay: Example B pre-emergence herbicidal activity; conditions: 312 h, rate 250 g/ha, evaluated after 13 days, read-out: Pre-Emergence Activity ALOMY (100=total damage to plant; 0=no damage to plant)
Procedure: (§1) Seeds of a variety of test species were sown in standard soil in pots. After cultivation for one day (pre-emergence) or after 8 days cultivation (post-emergence) under controlled conditions in a glasshouse (at 24/16° C., day/night; 14 hours light; 65% humidity), the plants were sprayed with an aqueous spray solution derived from the formulation of the technical active ingredient in acetone/water (50:50) solution containing 0.5% Tween 20 (polyoxyethelyene sorbitan monolaurate, CAS RN 9005-64-5).
(§2) The test plants were then grown in a glasshouse under controlled conditions in a glasshouse (at 24/16° C., day/night; 14 hours light; 65% humidity) and watered twice daily. After 13 days for pre and post-emergence, the test was evaluated (100=total damage to plant; 0=no damage to plant).
(§3) Alopecurus myosuroides (ALOMY), Avena fatua (AVEFA), Setaria faberi (SETFA), Echinochloa crus-galli (ECHCG), Solanum nigrum (SOLNI) and Amaranthus retoflexus (AMARE)

[2] = system: Amaranthus retoflexus (AMARE); assay: Example B pre-emergence herbicidal activity; conditions: Amaranthus retroflexus, 312 h, rate 250 g/ha, evaluated after 13 days, read-out: Pre-Emergence Activity AMARE (100=total damage to plant; 0=no damage to plant)
Procedure: as §1, §2, §3

Avena fatua (AVEFA) [3] = assay: Example B pre-emergence herbicidal activity; conditions: 312 h, rate 250 g/ha, evaluated after 13 days, read-out: Pre-Emergence Activity AVEFA (100=total damage to plant; 0=no damage to plant)
Procedure: as §1, §2, §3

[4] = system: Echinochloa crus-galli (ECHCG); assay: Example B pre-emergence herbicidal activity; conditions: 312 h, rate 250 g/ha, evaluated after 13 days, read-out: Pre-Emergence Activity ECHCG (100=total damage to plant; 0=no damage to plant)
Procedure: as §1, §2, §3

Setaria faberi (SETFA) [5] = assay: Example B pre-emergence herbicidal activity; conditions: 312 h, rate 250 g/ha, evaluated after 13 days, read-out: Pre-Emergence Activity SETFA (100=total damage to plant; 0=no damage to plant)
Procedure: as §1, §2, §3

[6] = system: Alopecurus myosuroides (ALOMY); assay: Example B post-emergence herbicidal activity; conditions: 312 h, rate 250 g/ha, evaluated after 13 days, read-out: Post-emergence activity ALOMY (100=total damage to plant; 0=no damage to plant)
Procedure: as §1, §2, §3

[7] = system: Amaranthus retoflexus (AMARE); assay: Example B post-emergence herbicidal activity; conditions: Amaranthus retroflexus, 312 h, rate 250 g/ha, evaluated after 13 days, read-out: Post-emergence activity AMARE (100=total damage to plant; 0=no damage to plant)
Procedure: as §1, §2, §3

Avena fatua (AVEFA) [8] = assay: Example B post-emergence herbicidal activity; conditions: 312 h, rate 250 g/ha, evaluated after 13 days, read-out: Post-emergence activity AVEFA (100=total damage to plant; 0=no damage to plant)
Procedure: as §1, §2, §3

[9] = system: Echinochloa crus-galli (ECHCG); assay: Example B post-emergence herbicidal activity; conditions: 312 h, rate 250 g/ha, evaluated after 13 days, read-out: Post-emergence activity ECHCG (100=total damage to plant; 0=no damage to plant)
Procedure: as §1, §2, §3

Setaria faberi (SETFA) [10] = assay: Example B post-emergence herbicidal activity; conditions: 312 h, rate 250 g/ha, evaluated after 13 days, read-out: Post-emergence activity SETFA (100=total damage to plant; 0=no damage to plant)
Procedure: as §1, §2, §3

| SMILES | pest or weed control at 250 g/ha [1] [%] | pest or weed control at 250 g/ha [2] [%] | pest or weed control at 250 g/ha (Avena fatua (AVEFA) [3]) [%] | pest or weed control at 250 g/ha [4] [%] | pest or weed control at 250 g/ha (Setaria faberi (SETFA) [5]) [%] | pest or weed control at 250 g/ha [6] [%] | pest or weed control at 250 g/ha [7] [%] | pest or weed control at 250 g/ha (Avena fatua (AVEFA) [8]) [%] | pest or weed control at 250 g/ha [9] [%] | pest or weed control at 250 g/ha (Setaria faberi (SETFA) [10]) [%] |
| --- | --- | --- | --- | --- | --- | --- | --- | --- | --- | --- |
| CCc1sc(-c2ccc(Cl)cc2)nc1C1=C(OC(=O)C2CC2)C2CCC(C2)C1=O (stereo not shown) [Compound P1] | 80 | 0 | 0 | 100 | 100 | 100 | 0 | 100 | 100 | 100 |
| CCc1sc(-c2ccc(Cl)cc2)nc1C1=C(OC(=O)C(C)(C)C)C2CCC(C2)C1=O (stereo not shown) [Compound P2, 2,2-dimethylpropionic acid 3-[2-(4-chloro-phenyl)-5-ethylthiazol-4-yl]-4-oxobicyclo[3.2.1]oct-2-en-2-yl ester] | 80 | 0 | 40 | 100 | 100 | 100 | 0 | 100 | 100 | 100 |
| Cc1sc(-c2ccc(Cl)c(Cl)c2)nc1C1=C(OC(=O)C(C)(C)C)[C@H]2CC[C@H](C2)C1=O [Compound P3] | 20 | 0 | 0 | 80 | 100 | 60 | 0 | 0 | 80 | 100 |
| Cc1sc(-c2ccc(Cl)c(C(F)(F)F)c2)nc1C1=C(OC(=O)C(C)(C)C)[C@H]2CC[C@H](C2)C1=O [Compound P4] | 0 | 40 | 0 | 0 | 90 | 20 | 0 | 0 | 80 | 80 |
| CCOC(=O)/C=C/OC1=C(c2nc(-c3ccc(Cl)cc3)sc2CC)C(=O)[C@H]2CC[C@@H]1C2 [Compound P5] | 100 | 0 | 30 | 40 | 100 | 100 | 0 | 90 | 100 | 100 |
| CC(=O)OC1=C(c2nc(-c3ccc(Br)cn3)sc2C)C(=O)[C@H]2CC[C@@H]1C2 [Compound P6] | 20 | 0 | 0 | 20 | 100 | 90 | 0 | 80 | 100 | 100 |
| Cc1sc(-c2ccc(Br)cn2)nc1C1=C(OC(=O)C2CC2)[C@@H]2CC[C@@H](C2)C1=O [Compound P7] | 30 | 0 | 0 | 20 | 90 | 90 | 0 | 90 | 100 | 100 |
| Cc1sc(-c2ccc(Br)cn2)nc1C1=C(OC(=O)C(C)(C)C)[C@@H]2CC[C@@H](C2)C1=O [Compound P8] | 20 | 0 | 0 | 50 | 100 | 70 | 0 | 80 | 0 | 100 |
| CCc1sc(-c2ccc(Cl)cc2)nc1C1=C(OC(=C(C#N)C#N)C(F)(F)F)[C@@H]2CC[C@@H](C2)C1=O [Compound P9] | 90 | 0 | 100 | 90 | 100 | 100 | 0 | 100 | 100 | 100 |
| CCOC(=O)COC1=C(c2sc(-c3ccc(Cl)cc3)nc2C)C(=O)[C@H]2CC[C@@H]1C2 [Compound P11] | 0 | 0 | 0 | 0 | 80 | 20 | 0 | 20 | 80 | 80 |
| CC(=O)OC1=C(c2nc(-c3ccc(Br)cc3C)sc2C)C(=O)[C@H]2CC[C@@H]1C2 [Compound P12] | 30 | 0 | 20 | 20 | 100 | 100 | 0 | 90 | 100 | 100 |
| Cc1cc(Br)ccc1-c1nc(C2=C(OC(=O)C3CC3)[C@@H]3CC[C@@H](C3)C2=O)c(C)s1 [Compound P13] | 70 | 0 | 100 | 50 | 100 | 90 | 0 | 90 | 100 | 100 |
| Cc1cc(Br)ccc1-c1nc(C2=C(OC(=O)C(C)(C)C)[C@@H]3CC[C@@H](C3)C2=O)c(C)s1 [Compound P14] | 70 | 0 | 100 | 100 | 100 | 100 | 0 | 90 | 100 | 100 |
| CCc1sc(-c2ccc(C)cc2)nc1C1=C(OC(C)=O)[C@H]2CC[C@H](C2)C1=O [Compound P15] | 90 | 0 | 60 | 100 | 90 | 100 | 0 | 90 | 100 | 100 |
| Cc1cc(-c2nc(C3C(=O)[C@@H]4CC[C@@H](C4)C3=O)c(C)s2)ccc1Cl (stereo partly shown) [Compound T4] | 50 | 0 | 0 | 60 | 30 | 60 | 0 |  | 100 | 80 |
| O=C1C(c2cncc(Cl)c2)C(=O)[C@H]2CC[C@@H]1C2 (stereo partly shown) [Compound T85] | 0 | 30 | 0 | 0 | 0 |  |  |  |  |  |
